We go through 18 compounds from patent US20150071918A1, “PEPTIDES FOR THE TREATMENT OF CANCER” (H. LEE MOFFITT CANCER CENTER AND RESEARCH INSTITUTE, INC., priority 2012, published 2015).

For this assay, the system named is H929 myeloma cells. The assay is classed as cell-based, human. The following applies: for bioactivity relative to parent/comparator peptide: SAR statements. As to the method:
H929 cells were treated for 24 hours with varying concentrations of peptide. Cell death was measured by Topro-3 staining and FACS analysis. The IC50 values were obtained from linear regression analysis and an average value was obtained from 3 independent experiments.
Table 4 legend: Structure activity relationship in H929 myeloma cells of cyclic INTEGRIN INTERACTION INHIBITORS derivatives. The minimal bioactive core sequence of INTEGRIN INTERACTION INHIBITORS WSVVM (SEQ ID NO:33) was cyclized using 2 novel reduced amide bond beta turn promoters and KLKLK (SEQ ID NO:34) as the non-recognition sequence. H929 cells were treated with varying concentrations of the indicated peptide for 24 h. Cell viability was determined using Topro-3 staining and FACS analysis after drug treatment. IC50 values were generated from linear regressions generated from the dose response curves (n=mean of 3 independent experiments).
A colony forming assay was used to compare induced cell death in H929 multiple myeloma cells. Cells were treated with integrin interaction inhibitors, shown in FIG. 5 and Table 4, and cell death was measured following 24 hour peptide treatment by TOPRO-3 staining and FACS analysis.

The mark [1] stands for this setting: Table 8, cyclic III peptide analogs, H929 cells, read-out: IC50.
Setting [2] is: H929 myeloma cells, 24 h treatment, Topro-3 staining and FACS, mean of at least 3 independent experiments, read-out: IC50.

Where two headings read alike, the source gives them in different places. *1 amine or outer side, *2 acyl side, *3 side chain or, on linkers, in order; H or OH if unused. Where a SMILES comes first, the peptide text is derived from it. Bridges are numbered along the chain shown (N, C = ends). Primed or numbered codes have the meaning given here. [ ]: non-standard residue; d: D form. The star is where a group is joined. T1 = linker NH2CH2CH2N(SO2Me)CH2COOH, CS(=O)(=O)N(CCN[*:1])CC(=O)[*:2]; T1″ = NH2CH2CH2N(SO2Me)CH2COOH, CS(=O)(=O)N(CCN[*:1])CC(=O)[*:2]; dProlinol(O-CH2CO) = O=C(COC[C@H]1CCCN1[*:1])[*:2]; N(2-Aminoethyl)Gly = O=C(CN(CCN[*:3])[*:1])[*:2]; T3 = linker N(CH2)3CHCH2OCH2COOH; Nle = CCCC[C@H](N)C(=O)O; Ms = CS(=O)(=O)*; Sar = CNCC(=O)O A value given as a limit tells only on which side of the number the result lay.

For `CCCC[C@@H]1NC(=O)CN(S(C)(=O)=O)CCNC(=O)[C@H](CCCCN)NC(=O)[C@H](CC(C)C)NC(=O)[C@H](CCCCN)NC(=O)[C@H](CC(C)C)NC(=O)[C@H](CCCCN)NC(=O)COC[C@H]2CCCN2C(=O)[C@H](Cc2c[nH]c3ccccc23)NC(=O)[C@H](C)NC(=O)[C@H](CC(C)C)NC(=O)[C@H](C(C)C)NC1=O` [Peptide 24, KLKLKT1N*VLAWT3] (Ms-[N(2-Aminoethyl)Gly][Nle]VLAW[dProlinol(O-CH2CO)]KLKLK; lactam 1-C), the IC50 under setting [1] was 10 µM. “KLKLQT1N*VVAWT3 (cyclo(KLKLQ[T1][Nle]VVAW[T3])) [Peptide 19]”: the IC50 is, setting by setting: under setting [2], 12 µM; under setting [1], 19 µM. As for `CCCC[C@@H]1NC(=O)CN(S(C)(=O)=O)CCNC(=O)[C@H](CCCCN)NC(=O)[C@H](CC(C)C)NC(=O)[C@H](CCCCN)NC(=O)[C@H](CC(C)C)NC(=O)[C@H](CCCCN)NC(=O)CN(S(C)(=O)=O)CCNC(=O)[C@H](Cc2c[nH]c3ccccc23)NC(=O)[C@H](CO)NC(=O)[C@H](C(C)C)NC(=O)[C@H](C(C)C)NC1=O` [Peptide 8, KLKLKT1N*VVSWT1], the “fold more potent than linear HYD1” value (H929 cells, reference of the 10- and 15-fold statements not expressly named) was found to be 15 fold. In addition, the “bioactivity relative to parent/comparator peptide” value (H929 cells) is on record as “resulted in a further increase of the peptide's bioactivity”. As for “KLKQKT1N*VVAWT3 [21] (cyclo(KLKQK[T1][Nle]VVAW[T3])) [Peptide 21]”, the IC50 runs as follows: under setting [2], 39 µM; under setting [1], 25 µM. As to `CC(C)C[C@@H]1NC(=O)[C@H](CCCCN)NC(=O)CN(S(C)(=O)=O)CCNC(=O)[C@H](Cc2c[nH]c3ccccc23)NC(=O)[C@H](CO)NC(=O)[C@H](C(C)C)NC(=O)[C@H](C(C)C)NC(=O)[C@H](C)NC(=O)CN(S(C)(=O)=O)CCNC(=O)[C@H](CCCCN)NC(=O)[C@H](CC(C)C)NC(=O)[C@H](CCCCN)NC1=O` [Peptide 7, KLKLKT1AVVSWT1], the “bioactivity relative to parent/comparator peptide” value (H929 cells) is listed as “decrease in activity”. `CCCC[C@@H]1NC(=O)[C@H](C(C)C)NC(=O)[C@H](C(C)C)NC(=O)[C@H](C)NC(=O)[C@H](Cc2c[nH]c3ccccc23)NC(=O)COC[C@H]2CCCN2C(=O)[C@H](CCCCN)NC(=O)[C@H](CC(C)C)NC(=O)[C@H](CCCCN)NC(=O)[C@H](CC(C)C)NC(=O)[C@H](CCCCN)NC(=O)COC[C@H]2CCCN2C1=O` [Peptide 22, KLKLKT3WAVVN*T3] (cyclo(KLKLK[dProlinol(O-CH2CO)]WAVV[Nle][dProlinol(O-CH2CO)])): the IC50 (24 h) amounted to 17 µM. Regarding “KLKLKT1WAAVN*T1 (cyclo(KLKLK[T1″]WAAV[Nle][T1″])) [Peptide 14]”, the IC50 under setting [2] is greater than 50 µM and the IC50 under setting [1] is 41 µM. Turning to `CSCC[C@@H]1NC(=O)CN(S(C)(=O)=O)CCNC(=O)[C@H](CCCCN)NC(=O)[C@H](CC(C)C)NC(=O)[C@H](CCCCN)NC(=O)[C@H](CC(C)C)NC(=O)[C@H](CCCCN)NC(=O)CN(S(C)(=O)=O)CCNC(=O)[C@H](Cc2c[nH]c3ccccc23)NC(=O)[C@H](CO)NC(=O)[C@H](C)NC(=O)[C@H](C(C)C)NC1=O` [Peptide 5, KLKLKT1MVASWT1], for the setting “H929 cells”, the “bioactivity relative to parent/comparator peptide” value is on record as “decrease in activity”.

For the compound `CCCC[C@@H]1NC(=O)CN(S(C)(=O)=O)CCNC(=O)[C@H](CCCCN)NC(=O)[C@H](CC(C)C)NC(=O)[C@H](CCCCN)NC(=O)[C@H](CC(C)C)NC(=O)[C@H](CCCCN)NC(=O)COC[C@H]2CCCN2C(=O)[C@H](Cc2c[nH]c3ccccc23)NC(=O)[C@H](C)NC(=O)[C@H](Cc2ccccc2)NC(=O)[C@H](C(C)C)NC1=O` [Peptide 26, KLKLKT1N*VFAWT3] (Ms-[N(2-Aminoethyl)Gly][Nle]VFAW[dProlinol(O-CH2CO)]KLKLK; lactam 1-C), the IC50 under setting [1] was found to be 9 µM. Turning to `CSCC[C@@H]1NC(=O)CN(S(C)(=O)=O)CCNC(=O)[C@H](CCCCN)NC(=O)[C@H](CC(C)C)NC(=O)[C@H](CCCCN)NC(=O)[C@H](CC(C)C)NC(=O)[C@H](CCCCN)NC(=O)CN(S(C)(=O)=O)CCNC(=O)[C@H](C)NC(=O)[C@H](CO)NC(=O)[C@H](C(C)C)NC(=O)[C@H](C(C)C)NC1=O` [Peptide 3, KLKLKT1MVVSAT1], under “H929 cells”, the “bioactivity relative to parent/comparator peptide” value is recorded as “decrease in activity”. In turn, `CCCC[C@@H]1NC(=O)[C@H](C(C)C)NC(=O)[C@H](C(C)C)NC(=O)[C@H](C)NC(=O)[C@H](Cc2c[nH]c3ccccc23)NC(=O)COC[C@H]2CCCN2C(=O)[C@H](CCCCN)NC(=O)CN(C)C(=O)[C@H](CCCCN)NC(=O)CN(C)C(=O)[C@H](CCCCN)NC(=O)COC[C@H]2CCCN2C1=O` [Peptide 23, KXKXKT3WAVVN*T3] (cyclo(K[Sar]K[Sar]K[dProlinol(O-CH2CO)]WAVV[Nle][dProlinol(O-CH2CO)])) registered an IC50 (24 h) greater than 150 µM. Also, the “bioactivity relative to parent/comparator peptide” value (H929 cells) is reported as “poor bioactivity”. Regarding “KLKQKT1N*VVAWT3 [17] (cyclo(KLKQK[T1][Nle]VVAW[T3])) [Peptide 17]”, the IC50 stood at 25 µM under setting [2] and 13 µM under setting [1]. As for `CCCC[C@@H]1NC(=O)CN(S(C)(=O)=O)CCNC(=O)[C@H](CCCCN)NC(=O)[C@H](CC(C)C)NC(=O)[C@H](CCCCN)NC(=O)[C@H](CC(C)C)NC(=O)[C@H](CCCCN)NC(=O)COC[C@H]2CCCN2C(=O)[C@H](Cc2c[nH]c3ccccc23)NC(=O)[C@H](C)NC(=O)[C@H]([C@@H](C)CC)NC(=O)[C@H](C(C)C)NC1=O` [Peptide 25, KLKLKT1N*VIAWT3] (Ms-[N(2-Aminoethyl)Gly][Nle]VIAW[dProlinol(O-CH2CO)]KLKLK; lactam 1-C), the IC50 under setting [1] was determined as 10 µM.

Turning to `CCCC[C@@H]1NC(=O)CN(S(C)(=O)=O)CCNC(=O)[C@H](CCCCN)NC(=O)[C@H](CC(C)C)NC(=O)[C@H](CCCCN)NC(=O)[C@H](CC(C)C)NC(=O)[C@H](CCCCN)NC(=O)COC[C@H]2CCCN2C(=O)[C@H](Cc2c[nH]c3ccccc23)NC(=O)[C@H](C)NC(=O)[C@H](C(C)C)NC(=O)[C@H](C(C)C)NC1=O` [Peptide 16, KLKLKT1N*VVAWT3] (Ms-[N(2-Aminoethyl)Gly][Nle]VVAW[dProlinol(O-CH2CO)]KLKLK; lactam 1-C), the IC50 came to 13 µM under setting [2] and 1 µM (text b390, H929 multiple myeloma cells, read-out: bioactivity). Under “24 h”, `CCCC[C@@H]1NC(=O)CN(S(C)(=O)=O)CCNC(=O)[C@H](CCCCN)NC(=O)[C@H](CC(C)C)NC(=O)[C@H](CCCCN)NC(=O)[C@H](CC(C)C)NC(=O)[C@H](CCC(N)=O)NC(=O)COC[C@H]2CCCN2C(=O)[C@H](Cc2c[nH]c3ccccc23)NC(=O)[C@H](C)NC(=O)[C@H](C(C)C)NC(=O)[C@H](C(C)C)NC1=O` [Peptide 18, QLKLKT1N*VVAWT3] (Ms-[N(2-Aminoethyl)Gly][Nle]VVAW[dProlinol(O-CH2CO)]QLKLK; lactam 1-C) gave an IC50 of 19 µM. On to `CSCC[C@@H]1NC(=O)CN(S(C)(=O)=O)CCNC(=O)[C@H](CCCCN)NC(=O)[C@H](CC(C)C)NC(=O)[C@H](CCCCN)NC(=O)[C@H](CC(C)C)NC(=O)[C@H](CCCCN)NC(=O)CN(S(C)(=O)=O)CCNC(=O)[C@H](Cc2c[nH]c3ccccc23)NC(=O)[C@H](CO)NC(=O)[C@H](C(C)C)NC(=O)[C@H](C)NC1=O` [Peptide 6, KLKLKT1MAVSWT1], for which the “bioactivity relative to parent/comparator peptide” value (H929 cells) was “increase in activity”.

With “KQKLKT1N*VVAWT3 (cyclo(KQKLK[T1][Nle]VVAW[T3])) [Peptide 20]”, the IC50 by setting is: under setting [2], 15 µM; under setting [1], 18 µM. Take “KLKLKT1WAVAN*T1 (cyclo(KLKLK[T1]WAVAL[T1]); not fully specified (residue 11); printed as KLKLKT1WAVAN*T1) [Peptide 13]”: the IC50 amounted to 9 µM under setting [2] and 26 µM under setting [1].
